Laboratory results from publication PMC3401275 (International Journal of Pharmaceutics, 2012).

What was measured:
[1] = tested on: Caco-2 cells; assay: Cytotoxicity assay; format: cell-based, human; settings: 100µM, 48 h
[2] = cited from earlier work
[3] = tested on: Caco-2 cells; assay: Cellular accumulation on Caco-2 cell monolayers; settings: 30 min incubation, Fig. 3
[4] = target: T1, SMVT (Canis lupus familiaris, UniProt A0A8I3MY61); settings: read-out: apparent affinity constant (Km) towards SMVT; MDCK-MDR1 cells, [3H] biotin uptake, 0.1–100µM, 30 min, Michaelis-Menten fit
T1 sequence (A0A8I3MY61 1-636): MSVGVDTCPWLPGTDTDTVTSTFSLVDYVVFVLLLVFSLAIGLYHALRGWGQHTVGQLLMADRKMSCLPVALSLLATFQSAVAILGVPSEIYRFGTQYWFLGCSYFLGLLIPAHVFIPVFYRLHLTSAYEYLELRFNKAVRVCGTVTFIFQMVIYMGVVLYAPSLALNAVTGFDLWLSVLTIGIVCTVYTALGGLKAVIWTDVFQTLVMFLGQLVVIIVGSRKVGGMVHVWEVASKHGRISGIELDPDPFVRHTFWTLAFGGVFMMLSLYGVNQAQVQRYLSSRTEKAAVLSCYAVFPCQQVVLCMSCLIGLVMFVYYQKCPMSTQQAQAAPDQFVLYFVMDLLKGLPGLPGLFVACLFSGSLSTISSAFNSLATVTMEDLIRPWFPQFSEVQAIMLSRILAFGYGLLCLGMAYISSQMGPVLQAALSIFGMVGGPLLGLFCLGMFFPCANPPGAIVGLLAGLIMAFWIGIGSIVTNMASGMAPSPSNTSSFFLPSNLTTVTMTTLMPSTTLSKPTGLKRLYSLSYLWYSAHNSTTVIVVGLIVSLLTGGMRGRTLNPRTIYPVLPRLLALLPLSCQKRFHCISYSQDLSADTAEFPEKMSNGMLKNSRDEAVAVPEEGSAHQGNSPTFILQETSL

[5] = target: T1, SMVT; settings: read-out: IC50 for inhibition of [3H] biotin uptake; MDCK-MDR1 cells, 0.1–100µM, 30 min
[6] = target: T1, SMVT; format: cell-based, canine; settings: MDCK-MDR1 cells, excess biotin, Fig. 4
[7] = tested on: MDCK-MDR1 cells; assay: Cellular accumulation on MDCK-MDR1 cell monolayers; settings: 30 min incubation, Fig. 2
[8] = target: T1, SMVT; settings: MDCK-MDR1 monolayers, 0.5µCi/ml, no inhibitor

Row | Molecule | increase in the uptake compared to ACV [3] | Km [4] | IC50 [5] | uptake of prodrug in the presence of unlabeled biotin [6] | further results
1 | Nc1nc2c(ncn2COCCO)c(=O)[nH]1 [ACV, 2-amino-9-((2-hydroxyethoxy)methyl)-1H-purin-6(9H)-one] |  |  |  |  | cytotoxic effect [1]: Neither ACV nor its targeted lipid prodrugs demonstrate any cytotoxic effect; oral bioavailability ([2]; in vivo, po): 15–30%
2 | Nc1nc2c(ncn2COCCOC(=O)CCCC[C@@H]2SC[C@@H]3NC(=O)N[C@@H]32)c(=O)[nH]1 [B-ACV, Biotin-ACV] | 3.5 times | 30.9 ± 4.19 µM | 14.84 ± 0.1 µM | significantly lower | increase in the uptake compared to parent drug, ACV [7]: 6 times
3 | biotin-ricinoleicacid-acyclovir [B-R-ACV] |  | 20.2 ± 1.74 µM | 8.04 ± 0.07 µM | significantly lower | 
4 | CC(C)[C@H](N)C(=O)OCCOCn1cnc2c(=O)[nH]c(N)nc21 [VACV, Valacyclovir] |  |  |  |  | increase of the oral bioavailability of ACV ([2]; ref Balimane et al., 1998, de Vrueh et al., Guo et al., 1999, Jacobson, 1993, Perry and Faulds, 1996, Soul-Lawton et al., 1995, Talluri et al., 2008): 3 to 5 fold
5 | [^3H] Biotin |  |  |  |  | Permeability of [3H] biotin alone [8]: 4.74 ×10⁻⁶ cm/s
6 | CCCCCCC(CCCCCCCCCCC(=O)OCCOCn1cnc2c(=O)[nH]c(N)nc21)OC(=O)CCCC[C@@H]1SC[C@@H]2NC(=O)N[C@@H]21 (stereo partly shown) [B-12HS-ACV, biotin-12hydroxystearicacid-acyclovir] | 8.3 times | 24 ± 3.2 µM | 8.17 ± 0.09 µM | significantly lower | 
